These are literature values, as cited in US12686665B2, “Bicyclic fused ring derivative or salt thereof and pharmaceutical composition comprising same” (YUHAN CORPORATION, priority 2021, dated 2026).

Series [1] relates to liver and cardiacfibrosis. As to conditions: in vivo; cited from earlier work.
Series [2] concerns NASH patients with advanced liver fibrosis and liver cirrhosis. The settings on record: after 4 years of the treatment; cited from earlier work.

With `N#CCCN` [β-Aminopropionitrile], the “liver and cardiac fibrosis” value in series [1] is “improve liver and cardiacfibrosis”.

B1: Simtuzumab: a monoclonal antibody against LOXL2 (antibody, chains of the INN, looked up, V domains shown)
VH: QVQLVQSGAEVKKPGASVKVSCKASGYAFTYYLIEWVRQAPGQGLEWIGVINPGSGGTNYNEKFKGRATITADKSTSTAYMELSSLRSEDTAVYFCARNWMNFDYWGQGTTVTVSS
VL: DIVMTQTPLSLSVTPGQPASISCRSSKSLLHSNGNTYLYWFLQKPGQSPQFLIYRMSNLASGVPDRFSGSGSGTDFTLKISRVEAEDVGVYYCMQHLEYPYTFGGGTKVEIK
Consider B1, for which the histological efficacy entry in series [2] is recorded as “failure to prove histological efficacy”.
